Source: ChEMBL document CHEMBL1201862, “PubChem BioAssay data set” (2004)
Calls of active or inactive are those of the source.

Tests used:
[1] = Jurkat T cell cytotoxicity, dose response, cytotoxicity control for P. falciparum gametocyte viability project, luminescence (AID 1117277); format: functional, cell-based;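 note: potency reflects loss of cellular ATP meaning fewer viable cells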
[2] = P. falciparum late gametocyte killing, dose response, luminescence (AID 1117278); format: functional, cell-based;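 note: gametocytes exposed to compound for 24 hours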
[3] = molecular target: Mitogen-activated protein kinase 10 (Homo sapiens, UniProt P53779); assay: Dose response biochemical screening assay for inhibitors of c-Jun N-Terminal Kinase 3 (JNK3). [Related pubchem assays: 746 ]
Chain of Mitogen-activated protein kinase 10 (P53779 whole entry): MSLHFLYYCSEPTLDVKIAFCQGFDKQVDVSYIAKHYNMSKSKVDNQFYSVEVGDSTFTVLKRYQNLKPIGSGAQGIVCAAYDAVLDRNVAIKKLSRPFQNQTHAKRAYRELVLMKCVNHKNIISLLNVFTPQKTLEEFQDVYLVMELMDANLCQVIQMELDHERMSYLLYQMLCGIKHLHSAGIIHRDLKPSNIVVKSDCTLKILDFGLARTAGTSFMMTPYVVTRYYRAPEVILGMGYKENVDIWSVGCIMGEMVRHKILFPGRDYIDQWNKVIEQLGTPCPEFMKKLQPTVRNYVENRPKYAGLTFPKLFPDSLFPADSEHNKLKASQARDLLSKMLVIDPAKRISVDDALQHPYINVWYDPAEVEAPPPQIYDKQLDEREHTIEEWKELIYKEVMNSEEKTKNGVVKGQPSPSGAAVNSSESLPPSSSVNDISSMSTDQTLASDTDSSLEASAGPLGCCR

[4] = molecular target: T1, Voltage-gated N-type calcium channel alpha-1B subunit/Amyloid beta A4 precursor protein-binding family A member 1 (Homo sapiens, UniProt Q00975+Q02410); format: protein assay
T1 sequence (Q00975 whole entry, the tested form may be a part): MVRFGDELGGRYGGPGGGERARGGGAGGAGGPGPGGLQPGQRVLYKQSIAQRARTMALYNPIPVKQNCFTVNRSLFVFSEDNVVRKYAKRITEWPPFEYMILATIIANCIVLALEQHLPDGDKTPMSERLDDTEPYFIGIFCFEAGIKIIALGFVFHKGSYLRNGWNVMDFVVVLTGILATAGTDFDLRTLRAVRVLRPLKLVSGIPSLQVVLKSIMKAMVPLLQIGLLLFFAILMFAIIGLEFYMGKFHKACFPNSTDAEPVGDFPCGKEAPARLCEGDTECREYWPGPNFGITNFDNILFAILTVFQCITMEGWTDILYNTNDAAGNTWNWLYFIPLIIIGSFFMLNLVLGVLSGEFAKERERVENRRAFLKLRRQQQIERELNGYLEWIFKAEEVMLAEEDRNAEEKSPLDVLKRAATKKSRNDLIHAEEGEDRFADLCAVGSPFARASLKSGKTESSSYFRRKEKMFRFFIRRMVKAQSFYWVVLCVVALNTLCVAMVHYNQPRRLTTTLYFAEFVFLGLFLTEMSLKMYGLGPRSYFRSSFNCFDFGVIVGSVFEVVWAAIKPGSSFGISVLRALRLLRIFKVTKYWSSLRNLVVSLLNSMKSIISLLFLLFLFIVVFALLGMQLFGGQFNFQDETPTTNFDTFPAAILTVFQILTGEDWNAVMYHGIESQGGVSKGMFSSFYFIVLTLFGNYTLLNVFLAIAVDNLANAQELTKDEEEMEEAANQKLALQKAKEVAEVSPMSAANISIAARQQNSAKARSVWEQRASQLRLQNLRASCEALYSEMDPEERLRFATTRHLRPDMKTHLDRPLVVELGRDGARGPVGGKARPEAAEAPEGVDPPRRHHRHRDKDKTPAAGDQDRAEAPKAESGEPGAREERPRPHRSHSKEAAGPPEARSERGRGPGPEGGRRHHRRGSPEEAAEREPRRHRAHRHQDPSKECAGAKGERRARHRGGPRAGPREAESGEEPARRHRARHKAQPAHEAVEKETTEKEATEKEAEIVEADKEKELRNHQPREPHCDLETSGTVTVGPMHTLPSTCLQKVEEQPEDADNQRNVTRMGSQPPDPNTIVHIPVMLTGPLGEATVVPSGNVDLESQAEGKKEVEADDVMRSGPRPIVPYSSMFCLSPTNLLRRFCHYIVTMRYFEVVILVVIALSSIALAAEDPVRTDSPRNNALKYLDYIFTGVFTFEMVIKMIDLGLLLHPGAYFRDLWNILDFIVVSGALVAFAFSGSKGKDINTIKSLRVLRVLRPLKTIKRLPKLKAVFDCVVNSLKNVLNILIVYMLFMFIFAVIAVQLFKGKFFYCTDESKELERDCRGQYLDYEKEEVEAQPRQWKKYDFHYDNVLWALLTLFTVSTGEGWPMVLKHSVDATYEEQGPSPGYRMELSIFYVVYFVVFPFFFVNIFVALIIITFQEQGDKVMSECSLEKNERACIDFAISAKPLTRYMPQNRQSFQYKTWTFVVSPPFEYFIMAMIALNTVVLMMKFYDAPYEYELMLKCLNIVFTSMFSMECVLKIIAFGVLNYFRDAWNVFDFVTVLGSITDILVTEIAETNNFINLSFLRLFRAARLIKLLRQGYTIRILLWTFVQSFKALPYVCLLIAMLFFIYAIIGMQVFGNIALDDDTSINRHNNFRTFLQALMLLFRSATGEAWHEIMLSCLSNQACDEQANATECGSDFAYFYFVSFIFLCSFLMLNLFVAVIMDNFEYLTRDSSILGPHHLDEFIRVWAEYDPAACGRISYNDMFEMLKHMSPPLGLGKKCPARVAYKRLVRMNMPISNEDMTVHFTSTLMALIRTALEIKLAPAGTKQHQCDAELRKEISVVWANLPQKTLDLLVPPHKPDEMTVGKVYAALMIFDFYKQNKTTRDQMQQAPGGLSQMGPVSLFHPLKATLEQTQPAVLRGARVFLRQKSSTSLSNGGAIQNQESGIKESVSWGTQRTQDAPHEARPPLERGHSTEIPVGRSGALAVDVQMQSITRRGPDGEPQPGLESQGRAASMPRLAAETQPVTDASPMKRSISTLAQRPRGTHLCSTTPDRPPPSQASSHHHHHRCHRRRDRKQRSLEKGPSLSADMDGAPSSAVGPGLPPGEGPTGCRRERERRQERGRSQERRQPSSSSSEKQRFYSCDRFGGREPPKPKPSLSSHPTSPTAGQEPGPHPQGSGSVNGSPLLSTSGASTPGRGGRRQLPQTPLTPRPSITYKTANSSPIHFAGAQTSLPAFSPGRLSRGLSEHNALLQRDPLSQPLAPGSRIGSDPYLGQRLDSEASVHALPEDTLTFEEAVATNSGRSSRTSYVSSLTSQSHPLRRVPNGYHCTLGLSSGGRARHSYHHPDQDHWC
T1 sequence (Q02410 whole entry, the tested form may be a part): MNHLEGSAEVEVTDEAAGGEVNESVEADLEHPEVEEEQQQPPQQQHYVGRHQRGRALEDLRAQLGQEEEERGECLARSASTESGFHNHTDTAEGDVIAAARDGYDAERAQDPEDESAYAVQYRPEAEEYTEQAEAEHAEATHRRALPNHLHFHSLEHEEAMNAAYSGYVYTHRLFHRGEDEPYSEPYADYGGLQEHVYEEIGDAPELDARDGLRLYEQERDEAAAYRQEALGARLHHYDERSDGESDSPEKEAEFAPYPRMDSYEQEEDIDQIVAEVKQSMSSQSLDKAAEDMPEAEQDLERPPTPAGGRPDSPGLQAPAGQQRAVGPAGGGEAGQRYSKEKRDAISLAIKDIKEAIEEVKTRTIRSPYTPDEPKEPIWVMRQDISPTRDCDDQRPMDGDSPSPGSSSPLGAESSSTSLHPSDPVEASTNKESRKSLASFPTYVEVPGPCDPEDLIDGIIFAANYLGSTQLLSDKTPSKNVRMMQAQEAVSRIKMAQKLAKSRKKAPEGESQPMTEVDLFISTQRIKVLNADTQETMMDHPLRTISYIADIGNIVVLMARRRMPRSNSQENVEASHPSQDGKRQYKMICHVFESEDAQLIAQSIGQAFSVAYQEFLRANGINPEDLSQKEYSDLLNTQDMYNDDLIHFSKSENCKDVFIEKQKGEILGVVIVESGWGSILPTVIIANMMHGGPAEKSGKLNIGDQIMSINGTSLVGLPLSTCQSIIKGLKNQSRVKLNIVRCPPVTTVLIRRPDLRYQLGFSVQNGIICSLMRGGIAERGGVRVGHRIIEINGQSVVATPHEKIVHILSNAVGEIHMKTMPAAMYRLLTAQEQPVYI

[5] = molecular target: T2, Carboxy-terminal domain RNA polymerase II polypeptide A small phosphatase 1 (Homo sapiens, UniProt Q9GZU7); assay: inhibitors of CTDSP1, concentration-response testing, biochemical assay, absorbance-based, actives from ultra-high-throughput screening (AID 540297); format: functional
T2 sequence (Q9GZU7 whole entry): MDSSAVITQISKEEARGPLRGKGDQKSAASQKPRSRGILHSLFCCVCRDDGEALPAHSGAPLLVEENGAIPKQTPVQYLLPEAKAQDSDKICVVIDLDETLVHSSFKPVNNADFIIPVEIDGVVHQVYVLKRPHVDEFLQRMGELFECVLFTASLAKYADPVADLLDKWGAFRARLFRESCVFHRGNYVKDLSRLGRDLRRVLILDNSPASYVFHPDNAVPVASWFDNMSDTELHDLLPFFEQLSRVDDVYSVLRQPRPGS

[6] = molecular target: Protein Tat (Human immunodeficiency virus type 1 group M subtype B (isolate HXB2)(HIV-1), UniProt P04608); format: functional;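 note: tat binding to TAR RNA read out by fluorescence polarization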
Chain of Protein Tat (P04608 whole entry): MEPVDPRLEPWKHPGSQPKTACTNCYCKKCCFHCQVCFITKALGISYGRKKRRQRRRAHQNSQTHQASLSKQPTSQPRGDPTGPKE

[7] = molecular target: T1, Voltage-gated N-type calcium channel alpha-1B subunit/Amyloid beta A4 precursor protein-binding family A member 1; format: protein assay; remark: listed apart in the source
[8] = molecular target: Ephrin type-A receptor 4 (Mus musculus, UniProt Q03137); assay: inhibitors of EphA4 binding to KYL peptide, primary screen, biochemical, colorimetric, mouse EphA4 (AID 689); format: functional
[9] = molecular target: T3, Heat shock factor protein 1 (Mus musculus, UniProt P38532); assay: inhibition of MG132-induced HSE-luciferase signal, confirmation, cell-based, NIH3T3, luminescence, dose retest (AID 2382); format: functional;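 note: NIH3T3 fibroblasts with HSF1-driven luciferase reporter stressed by proteasome inhibitor MG132; luminescence from HSF1-driven luciferase expression after 8 hours of MG132 stress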
T3 sequence (P38532 whole entry): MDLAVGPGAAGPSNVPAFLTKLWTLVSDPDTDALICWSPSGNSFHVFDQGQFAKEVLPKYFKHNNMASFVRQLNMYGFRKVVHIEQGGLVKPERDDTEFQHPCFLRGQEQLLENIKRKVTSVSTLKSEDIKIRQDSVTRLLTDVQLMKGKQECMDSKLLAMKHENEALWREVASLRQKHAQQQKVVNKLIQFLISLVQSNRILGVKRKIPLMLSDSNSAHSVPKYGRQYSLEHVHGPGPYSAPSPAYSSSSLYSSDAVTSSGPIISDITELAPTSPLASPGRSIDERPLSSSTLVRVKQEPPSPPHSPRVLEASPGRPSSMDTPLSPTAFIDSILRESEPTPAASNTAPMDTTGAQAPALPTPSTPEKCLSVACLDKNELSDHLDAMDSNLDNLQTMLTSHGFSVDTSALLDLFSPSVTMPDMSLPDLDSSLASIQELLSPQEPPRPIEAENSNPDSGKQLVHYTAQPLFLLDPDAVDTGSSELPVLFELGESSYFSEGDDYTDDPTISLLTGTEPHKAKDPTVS

[10] = NIH-3T3 fibroblast cytotoxicity, dose response, cytotoxicity control, cell-based, fluorescence, Alamar Blue, secondary assay (AID 2327); format: functional;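 note: NIH-3T3 mouse fibroblasts cultured with fluconazole at 8 µg/mL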
[11] = HEp-2 cell cytotoxicity, dose response, cytotoxicity control for RSV inhibitor project, HTS (AID 2410); format: functional; conditions: human respiratory syncytial virus
[12] = C. albicans growth with fluconazole, confirmation, fluorescence, retest (AID 2467); format: functional, cell-based
[13] = test system: BJ; assay: cytotoxicity toward BJ-TERT-LT-ST fibroblasts, dose response, cell-based, RAS-independent, luminescence (AID 1935); format: functional; conditions: Homo sapiens;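 note: BJ fibroblasts immortalized with TERT plus LT and ST oncogenes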
[14] = HepG2 cell cytotoxicity, dose response, cytotoxicity control for Shn3 inhibitor project, CellTiter-Glo, cherry-picked (AID 624134); format: functional, cell-based
[15] = Shn3 3'UTR reporter inhibitors, dose response, cell-based, Clone20 osteoblasts, firefly luciferase, cherry-picked (AID 624132); format: functional;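 note: firefly luciferase luminescence from reporter carrying the Shn3 3'UTR in osteoblasts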
[16] = HepG2 cell cytotoxicity, dose response, cytotoxicity control, plate reader, cherry-pick, antagonist series (AID 743416); format: functional, cell-based
[17] = A549 cell cytotoxicity, dose response, cytotoxicity control, plate reader, cherry-pick, antagonist series (AID 743412); format: functional, cell-based
[18] = test system: BJ; assay: cytotoxicity toward BJ-TERT fibroblasts, dose response, cell-based, RAS-independent, luminescence (AID 1933); format: functional; conditions: Homo sapiens
[19] = molecular target: T4, COUP transcription factor 2 (Homo sapiens, UniProt P24468); assay: Luminescence-based cell-based high throughput dose response assay to identify inhibitors of COUP-TFII (NR2F2).; format: functional;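 note: HEK293 cells transiently cotransfected with COUP-TFII expression vector and reporter; luciferase reporter luminescence driven by COUP-TFII from the pX2-168 reporter plasmid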
T4 sequence (P24468 whole entry): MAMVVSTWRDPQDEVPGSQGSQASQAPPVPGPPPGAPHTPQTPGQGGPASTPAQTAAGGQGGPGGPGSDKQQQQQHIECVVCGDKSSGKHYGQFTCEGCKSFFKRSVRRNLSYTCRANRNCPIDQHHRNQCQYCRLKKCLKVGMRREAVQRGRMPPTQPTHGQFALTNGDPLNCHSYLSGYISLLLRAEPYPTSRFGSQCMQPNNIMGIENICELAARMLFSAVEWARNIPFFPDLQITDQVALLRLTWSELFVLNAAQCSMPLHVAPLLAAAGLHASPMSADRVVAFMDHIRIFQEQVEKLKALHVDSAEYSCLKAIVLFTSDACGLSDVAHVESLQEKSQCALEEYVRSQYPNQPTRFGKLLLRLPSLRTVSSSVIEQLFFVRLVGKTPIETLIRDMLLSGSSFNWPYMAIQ

[20] = cytotoxicity toward DRD oncogenic fibroblasts, dose response, cell-based, non-viral oncogenic, luminescence (AID 1934); format: functional; conditions: Homo sapiens
[21] = control 3'UTR Renilla luciferase suppression, dose response, counter-screen for Shn3 inhibitor project, cell-based, Clone20-Shn3RL, cherry-picked (AID 624133); format: functional
[22] = LGR2 antagonists, dose response, cell-based, HEK293, CRE-luciferase reporter, cherry pick, set 2 (AID 743343); format: functional;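 note: transfected cells were stimulated with diluted bursicon conditioned medium after compound addition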
[23] = HEK293 cell cytotoxicity, dose response, cytotoxicity control, plate reader, cherry-picked samples (AID 743446); format: functional, cell-based
[24] = MC4R antagonists, dose response, counter-screen for LGR2 antagonist project, cell-based, plate reader, cherry pick (AID 743444); format: functional;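 note: transfected HEK 293 cells stimulated with alpha-MSH peptide; potency of inhibitors of the alpha-MSH evoked signal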
[25] = molecular target: E3 ubiquitin-protein ligase Mdm2 (Homo sapiens, UniProt Q00987); assay: enhancers of MDM2-luciferase reporter signal, concentration-effect titration, project on inhibitors of MDM2 ubiquitin ligase, cellular assay, luminescent readout, 384-well plate format (AID 1394); format: functional;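 note: MDM2 E3 inhibitors raise luminescence so EC50 is for signal enhancement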
Chain of E3 ubiquitin-protein ligase Mdm2 (Q00987 whole entry): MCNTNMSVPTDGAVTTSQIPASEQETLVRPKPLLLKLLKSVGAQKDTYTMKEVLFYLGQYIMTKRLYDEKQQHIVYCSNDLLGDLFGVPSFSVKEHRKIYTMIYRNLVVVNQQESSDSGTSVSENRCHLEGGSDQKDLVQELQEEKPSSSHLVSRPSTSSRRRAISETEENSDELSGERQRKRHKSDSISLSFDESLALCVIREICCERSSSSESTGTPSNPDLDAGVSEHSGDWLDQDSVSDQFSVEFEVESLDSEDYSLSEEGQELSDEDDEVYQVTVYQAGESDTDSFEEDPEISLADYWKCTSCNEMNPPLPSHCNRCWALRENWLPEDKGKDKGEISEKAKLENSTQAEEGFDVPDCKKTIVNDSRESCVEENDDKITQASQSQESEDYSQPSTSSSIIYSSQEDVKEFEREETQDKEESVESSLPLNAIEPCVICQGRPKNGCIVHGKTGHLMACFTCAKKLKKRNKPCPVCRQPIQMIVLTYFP

[26] = test system: Vero; assay: cells; format: functional, cell-based; conditions: Chlorocebus sabaeus
[27] = test system: BJ; assay: cells; format: functional, cell-based; conditions: Homo sapiens
[28] = test system: Vero; assay: cells; format: functional, Chlorocebus sabaeus; conditions: Chlorocebus sabaeus, Vero
[29] = molecular target: T5, Tyrosine-protein phosphatase non-receptor type 7 (Homo sapiens, UniProt P35236); assay: inhibitors of human HePTP phosphatase, […], biochemical, absorbance, leukemia target (AID 521); format: functional
T5 sequence (P35236 whole entry): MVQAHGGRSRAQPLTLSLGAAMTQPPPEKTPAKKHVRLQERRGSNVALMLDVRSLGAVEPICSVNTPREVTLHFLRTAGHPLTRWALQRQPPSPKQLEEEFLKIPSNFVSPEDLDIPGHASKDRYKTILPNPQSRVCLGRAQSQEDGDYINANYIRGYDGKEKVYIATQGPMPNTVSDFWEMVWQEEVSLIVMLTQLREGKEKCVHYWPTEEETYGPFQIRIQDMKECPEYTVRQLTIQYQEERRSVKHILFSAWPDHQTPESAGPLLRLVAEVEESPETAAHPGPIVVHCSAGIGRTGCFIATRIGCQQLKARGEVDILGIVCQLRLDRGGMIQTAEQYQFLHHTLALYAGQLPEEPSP

[30] = P. falciparum ATP4 D1247Y mutant growth inhibitors, dose response, NITD609-resistant line, SYBR Green, dry powder (AID 1159571); format: functional, cell-based;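 note: parasites synchronized at ring stage by sorbitol before testing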
[31] = P. falciparum Dd2 growth inhibitors, dose response, SYBR Green, dry powder samples, set 9 (AID 1159568); format: functional, cell-based
[32] = P. falciparum Dd2 growth inhibitors, dose response, SYBR Green, dry powder samples (AID 1159566); format: functional, cell-based;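 note: potency for growth inhibition with lower SYBR green DNA signal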
[33] = P. falciparum 3D7-ScDHODH growth inhibitors, dose response, SYBR Green, dry powder samples (AID 1159570); format: functional, cell-based;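 note: parasite growth measured after 72 hours of compound exposure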
[34] = HepG2 cell cytotoxicity, dose response, cytotoxicity control, plate reader, dry powder samples (AID 1159569); format: functional, cell-based;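 note: inhibitor potency with signal falling toward the positive control level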
[35] = Plasmodium falciparum Dd2 Sybr green parasite growth Measured in Cell-Based and Microorganism Combination System Using Plate Reader - 2153-01_Inhibitor_Dose_DryPowder_Activity_Set3.; format: functional
[36] = P. falciparum Dd2 growth inhibitors, dose response, SYBR Green, cherry-picked samples (AID 1159567); format: functional, cell-based
[37] = HepG2 cell cytotoxicity, dose response, cytotoxicity control, cherry-picked samples (AID 1159577); format: functional, cell-based
[38] = molecular target: 5-hydroxytryptamine receptor 1A (Homo sapiens, UniProt P08908); format: functional
[39] = molecular target: Ubiquitin carboxyl-terminal hydrolase BAP1 (Homo sapiens, UniProt Q92560); assay: BAP1 deubiquitinase inhibitors, dose response, biochemical (AID 714); format: functional
Chain of Ubiquitin carboxyl-terminal hydrolase BAP1 (Q92560 whole entry): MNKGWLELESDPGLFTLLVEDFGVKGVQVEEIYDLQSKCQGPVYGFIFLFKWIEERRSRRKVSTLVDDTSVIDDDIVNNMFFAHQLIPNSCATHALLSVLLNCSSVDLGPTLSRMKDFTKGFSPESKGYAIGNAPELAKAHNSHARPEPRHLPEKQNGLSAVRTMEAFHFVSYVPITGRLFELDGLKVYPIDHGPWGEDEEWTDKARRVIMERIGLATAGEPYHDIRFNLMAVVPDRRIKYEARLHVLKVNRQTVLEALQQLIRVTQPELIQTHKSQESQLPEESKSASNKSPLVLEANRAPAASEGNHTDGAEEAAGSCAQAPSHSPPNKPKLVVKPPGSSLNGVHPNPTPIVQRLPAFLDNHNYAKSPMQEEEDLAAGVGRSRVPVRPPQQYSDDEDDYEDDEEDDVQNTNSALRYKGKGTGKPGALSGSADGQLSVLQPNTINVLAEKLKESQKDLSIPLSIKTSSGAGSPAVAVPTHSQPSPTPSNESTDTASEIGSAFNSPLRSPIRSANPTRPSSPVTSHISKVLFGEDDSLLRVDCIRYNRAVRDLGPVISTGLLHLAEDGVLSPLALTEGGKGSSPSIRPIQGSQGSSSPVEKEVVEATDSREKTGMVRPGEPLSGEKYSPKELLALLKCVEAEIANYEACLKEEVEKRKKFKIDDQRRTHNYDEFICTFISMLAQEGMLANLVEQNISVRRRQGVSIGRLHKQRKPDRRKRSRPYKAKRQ

[40] = cells; format: functional, cell-based; conditions: INS-1E
[41] = HeLa 4N DNA content increase, dose response, cell-based, IC50 (AID 1117351); format: functional
[42] = HeLa 2N DNA content increase, dose response, cell-based, IC50 (AID 1117349); format: functional
[43] = Dose-response inhibition of insulin secretion in a rat insulinoma line at 5 mM glucose (AID 1117331); format: functional, cell-based; conditions: INS-1E
[44] = HCT116 cell viability decrease, GSK3B pretreatment – CellTiter-Glo, IC50, dose response (AID 1117339); format: functional; conditions: HCT-116
[45] = CellTiter-Glo luminescent dose response of DLD-1 viability loss (AID 1117352); format: functional
[46] = Concentration-dependent survival of SW480 colon cancer line, luminescence detection with CellTiter-Glo, half-maximal inhibitory concentration (AID 1117338); format: functional
[47] = cytotoxicity toward HT-29 cells – cell-based, CellTiter-Glo luminescence, IC50, dose response (AID 1117330); format: functional
[48] = SNU-C1 cell viability reduction, dose response, CellTiter-Glo luminescence (AID 1117323); format: functional, cell-based
[49] = cytotoxicity toward HCT116 cells – cell-based, CellTiter-Glo luminescence, IC50, dose response (AID 1117332); format: functional; conditions: HCT-116

SMILES: CC(CC(=O)Nc1ccc(F)c([N+](=O)[O-])c1)c1ccccc1 (stereo not given)
- IC50 [1]: > 83.3 µM (inactive)
- IC50 [2]: > 109 µM (inactive)

SMILES: CC(C)n1nc(C(=O)OCC(=O)N(C)C2CCS(=O)(=O)C2)c2ccccc2c1=O (stereo not given)
- IC50 [3]: 35.5 µM (not active)

SMILES: COc1ccc(NS(=O)(=O)c2cccc(C(=O)NNC(=O)c3cccn3C)c2)cc1
- IC50 [4]: 23.5 µM (active)
- IC50 [5]: 5.42 µM (active)
- IC50 [6]: > 100 µM (active)
- IC50 [7]: > 50 µM (inactive)

SMILES: COc1ccc(NC2=Nc3ccccc3N3C2=Nc2c(c(C)nn2-c2ccc(C)cc2)C3c2cccnc2)cc1 (stereo not given)
- IC50 [8]: 10.4 µM (active)
- EC50 [9]: > 195 µM (not active)
- EC50 [10]: 53.8 µM (active)
- CC50 [11]: > 50 µM (active)
- EC50 [12]: > 38 µM (not active)

SMILES: CCSc1nc2ccccc2n1C(=O)/C=C/c1ccc(OC)c(OC)c1
- EC50 [13]: 13.6 µM (active)
- AC50 [14]: 47 µM (active)
- AC50 [15]: 0.962 µM (active)
- AC50 [16]: 12.9 µM (active)
- AC50 [17]: 5.61 µM (active)
- EC50 [18]: > 150 µM (not active)
- IC50 [19]: 8.54 µM (active)
- EC50 [20]: 5.41 µM (inconclusive)
- AC50 [21]: 7.89 µM (active)
- AC50 [22]: 4.61 µM (active)
- AC50 [23]: 5.58 µM (active)
- AC50 [24]: 5.86 µM (active)
- EC50 [25]: 2.65 µM (active)
- IC50 [26]: 10.4 µM (active)
- EC50 [27]: > 75 µM (inconclusive)
- CC50 [28]: 20.2 µM (active)

SMILES: CCn1c(COc2ccc(Cl)c(C)c2)nnc1SCC(=O)N1CCCC1
- IC50 [29]: > 100 µM (not active)

SMILES: COc1ccc(-c2ccc([C@H]3[C@@H](C#N)N(C(=O)NC(C)C)[C@@H]3CO)cc2)cc1
- AC50 [30]: 0.528 µM (active)
- AC50 [31]: 0.604 µM (active)
- AC50 [32]: 0.472 µM (active)
- AC50 [33]: 14.7 µM (active)
- AC50 [34]: 78 µM (active)
- AC50 [35]: 0.511 µM (active)
- AC50 [36]: 0.725 µM (active)
- AC50 [37]: > 39 µM (inactive)

SMILES: CCN(CC)c1nc(N2CCOCC2)c(C#N)c2c1CN(C)CC2
- EC50 [38]: > 50 µM (not active)

SMILES: N#Cc1c(NC(=O)CSc2nnnn2C2CCCCC2)sc2c1CCCC2
- IC50 [39]: > 50 µM (not active)

SMILES: CCN(CC)CCOc1ccccc1C(=O)CCc1ccccc1 [ETAFENONE]
- IC50 [40]: > 33.3 µM (inactive)
- IC50 [41]: > 10 µM (inactive)
- IC50 [42]: > 10 µM (inactive)
- IC50 [43]: 3.89 µM (active)

SMILES: CC(C)C[C@H](NC(=O)[C@H](Cc1ccccc1)NC(=O)c1cnccn1)B(O)O
- IC50 [44]: 0.00241 µM (active)
- IC50 [45]: 0.00636 µM (active)
- IC50 [46]: 0.00513 µM (active)
- IC50 [47]: 0.00315 µM (active)
- IC50 [48]: 0.0032 µM (active)
- IC50 [42]: 0.0078 µM (active)
- IC50 [49]: 0.00365 µM (active)
